Assay results as given in the NIST ThermoML archive (doi:10.1021/je060200b).

Test: xn = mol fraction of the nth substance listed
Conditions: 101 kPa, Liquid; for speed of sound: Pulse-echo method; for mass density: Vibrating tube method

BrCCCCCBr [1,5-dibromopentane] + CCCCCCC
Conditions | mass density [kg/m3] | speed of sound [m/s]
292.38 K, x1 = 1 | – | 1149.5
292.52 K, x1 = 0.1006 | 779.97 | –
292.52 K, x1 = 0.1994 | 875.92 | –
292.52 K, x1 = 0.3003 | 975.53 | –
292.52 K, x1 = 0.4008 | 1075.8 | –
292.52 K, x1 = 0.5004 | 1176.68 | –
292.52 K, x1 = 0.5999 | 1278.62 | –
292.52 K, x1 = 0.6995 | 1381.6 | –
292.52 K, x1 = 0.8002 | 1487.16 | –
292.52 K, x1 = 0.899 | 1591.59 | –
292.52 K, x1 = 1 | 1699.54 | –
292.56 K, x1 = 0.4 | – | 1103.5
292.59 K, x1 = 0.5001 | – | 1104.2
292.65 K, x1 = 0.2 | – | 1116.5
292.68 K, x1 = 0.3001 | – | 1107.2
292.73 K, x1 = 0.7999 | – | 1126.3
292.75 K, x1 = 0.8998 | – | 1137.3
292.76 K, x1 = 0.6 | – | 1108.4
292.8 K, x1 = 0.6997 | – | 1116.2
292.83 K, x1 = 0.1 | – | 1131.1
298.05 K, x1 = 0.1006 | 775.18 | –
298.05 K, x1 = 0.1994 | 870.87 | –
298.05 K, x1 = 0.3003 | 969.84 | –
298.05 K, x1 = 0.4008 | 1070.23 | –
298.05 K, x1 = 0.5004 | 1170.91 | –
298.05 K, x1 = 0.5999 | 1272.47 | –
298.05 K, x1 = 0.6995 | 1375.26 | –
298.05 K, x1 = 0.8002 | 1480.47 | –
298.05 K, x1 = 0.899 | 1584.66 | –
298.05 K, x1 = 1 | 1691.87 | –
298.37 K, x1 = 1 | – | 1133
298.59 K, x1 = 0.5001 | – | 1084.5
298.62 K, x1 = 0.4 | – | 1082.8
298.63 K, x1 = 0.2 | – | 1093.8
298.67 K, x1 = 0.3001 | – | 1085.7
298.73 K, x1 = 0.8998 | – | 1120.2
298.76 K, x1 = 0.7999 | – | 1108.6
298.77 K, x1 = 0.6 | – | 1089.6
298.8 K, x1 = 0.6997 | – | 1098.1
298.83 K, x1 = 0.1 | – | 1106.8
303.06 K, x1 = 0.1006 | 770.79 | –
303.06 K, x1 = 0.1994 | 866 | –
303.06 K, x1 = 0.3003 | 964.71 | –
303.06 K, x1 = 0.4008 | 1064.63 | –
303.06 K, x1 = 0.5004 | 1165.02 | –
303.06 K, x1 = 0.5999 | 1266.37 | –
303.06 K, x1 = 0.6995 | 1368.9 | –
303.06 K, x1 = 0.8002 | 1474.36 | –
303.06 K, x1 = 0.899 | 1578.04 | –
303.06 K, x1 = 1 | 1684.89 | –
303.39 K, x1 = 1 | – | 1119.3
303.59 K, x1 = 0.2 | – | 1075.1
303.63 K, x1 = 0.3001 | – | 1068
303.64 K, x1 = 0.4 | – | 1065.8
303.64 K, x1 = 0.5001 | – | 1068.3
303.67 K, x1 = 0.8998 | – | 1106.3
303.71 K, x1 = 0.7999 | – | 1094.2
303.72 K, x1 = 0.6 | – | 1074.2
303.78 K, x1 = 0.6997 | – | 1083.1
303.86 K, x1 = 0.1 | – | 1086.5
308.08 K, x1 = 0.1006 | 766.31 | –
308.08 K, x1 = 0.1994 | 861.23 | –
308.08 K, x1 = 0.3003 | 959.36 | –
308.08 K, x1 = 0.4008 | 1058.93 | –
308.08 K, x1 = 0.5004 | 1159.11 | –
308.08 K, x1 = 0.5999 | 1260.5 | –
308.08 K, x1 = 0.6995 | 1362.98 | –
308.08 K, x1 = 0.8002 | 1467.91 | –
308.08 K, x1 = 0.899 | 1571.77 | –
308.08 K, x1 = 1 | 1678.03 | –
308.38 K, x1 = 1 | – | 1105.8
308.55 K, x1 = 0.2 | – | 1056.4
308.58 K, x1 = 0.4 | – | 1049.1
308.58 K, x1 = 0.5001 | – | 1052.4
308.67 K, x1 = 0.3001 | – | 1050
308.67 K, x1 = 0.8998 | – | 1092.3
308.69 K, x1 = 0.6 | – | 1058.9
308.7 K, x1 = 0.7999 | – | 1079.8
308.82 K, x1 = 0.6997 | – | 1068.1
308.84 K, x1 = 0.1 | – | 1066.7
314.36 K, x1 = 1 | – | 1089.7
314.52 K, x1 = 0.5001 | – | 1033.4
314.54 K, x1 = 0.3001 | – | 1029.3
314.61 K, x1 = 0.2 | – | 1033.8
314.66 K, x1 = 0.1006 | 760.22 | –
314.66 K, x1 = 0.1994 | 854.58 | –
314.66 K, x1 = 0.3003 | 952.58 | –
314.66 K, x1 = 0.4008 | 1052 | –
314.66 K, x1 = 0.5004 | 1151.72 | –
314.66 K, x1 = 0.5999 | 1252.55 | –
314.66 K, x1 = 0.6995 | 1354.65 | –
314.66 K, x1 = 0.8002 | 1459.75 | –
314.66 K, x1 = 0.899 | 1562.81 | –
314.66 K, x1 = 1 | 1668.75 | –
314.67 K, x1 = 0.4 | – | 1028.8
314.68 K, x1 = 0.7999 | – | 1062.8
314.7 K, x1 = 0.8998 | – | 1075.6
314.75 K, x1 = 0.6 | – | 1040.2
314.82 K, x1 = 0.6997 | – | 1050.3
314.83 K, x1 = 0.1 | – | 1042.8
